Assay results as given in patent US20250302804A1, “RESOMELAGON AND ITS DERIVATIVES FOR THE TREATMENT OF CARDIOVASCULAR DISEASE, HYPERTENSION AND ATHEROSCLEROSIS” (SYNACT PHARMA ApS, priority 2022, published 2025).

Key:
MC3R = conditions: cited from earlier work
[1] = Phase IIa study in early RA patients: blood pressure and clinically notable vital sign abnormalities; format: in vivo, human; conditions: for MAP Average/Median: MAP = DAP + ⅓(SAP − DAP); for CNA (clinically notable vital sign abnormalities): SAP ≥160, <90, DAP ≥105, <50
Description: (§1) The study population will consist of newly diagnosed subjects with severe active RA (CDAI (Clinical disease activity score)>22) who are to start up-titration with methotrexate (MTX).
Safety measures (AEs, SAEs, including laboratory abnormalities and vital signs such as blood pressure) will be registered during the whole study duration.

[2] = test system: acute peritonitis induced by zymosan A in mice; assay: Zymosan A-induced acute peritonitis in mice: IL-1β, IL-6 and neutrophil accumulation; format: in vivo; conditions: 1 mg/kg intraperitoneal 30 minutes before zymosan, 12 hours, N=6
Protocol: Acute peritonitis was induced by the injection of 1 mg zymosan A (Sigma-Aldrich) i.p. in 0.5 ml sterile PBS in mice. Twelve hours later the mice were sacrificed by CO2 exposure, and peritoneal cavities were washed with 4 ml ice-cold PBS containing 3 mM EDTA. Cells were stained with Turk's solution (0.01% crystal violet in 3% acetic acid) and counted using a Neubauer hemocytometer or were stained with FITC-conjugated mAb for Ly-6G/Gr1, F4/80, and corresponding isotype controls (eBioscience, Hatfield, U.K.), and subjected to flow-cytometry analysis using a BD FACSCalibur platform (BD Biosciences, Oxford, U.K.). Levels of IL-1B and IL-6 in quick frozen samples were quantified according to the manufacturer's instructions using ELISA Ready-SET-Go! (eBioscience). All animal studies were approved by and performed under the guidelines of the Ethical Committee for the Use of Animals, Barts and The London School of Medicine and Home Office regulations (Guidance on the Operation of Animals, Scientific Procedures Act, 1986). Male (7-8 wk old) C57BL/6J wild-type (WT) mice were purchased from Charles River Laboratories. Test Item A, 1 mg/kg or vehicle treatment were given intraperitoneal 30 minutes before induction of the acute peritonitis. N=6 for in both groups.

[3] = test system: early rheumatoid arthritis (RA) patients with active joint disease; assay: Phase IIa placebo-controlled study in early rheumatoid arthritis patients: CDAI; format: in vivo, human; conditions: for CDAI group mean, Baseline / CDAI group mean, Screening / CDAI group mean, Week 4 / CDAI group mean, Week 2 / CDAI group mean, Week 5 / CDAI Difference / CDAI Difference in %: n = 31; for CDAI group mean, Baseline / CDAI group mean, Screening: before treatment; for CDAI group mean, Week 4: end of treatment; for CDAI group mean, Week 2: mid-treatment; for CDAI group mean, Week 5: one week follow-up after last dosage; for CDAI Difference / CDAI Difference in %: week 4 vs baseline
Protocol: as §1
The doses used in this Example are calculated based on the specific acetate salt form.
The study population will consist of newly diagnosed subjects with severe active RA (CDAI >22) who are to start up-titration with MTX. A minimum of 90 subjects are expected to complete the study; plus 45 subjects from Bulgaria and/or Moldova for a sub-study. Up to 120 subjects are planned to be enrolled to account for discontinuation rate, and up to 60 subjects for the sub-study.
The CDAI is a clinical composite score for following patients with RA.
Descriptive changes in CDAI where CDAI=SJC (28)+TJC (28)+PGA+IGA; • SJC (28): Swollen 28-Joint Count (shoulders, elbows, wrists, MCPs, PIPs including thumb IP, knees); • TJC (28): Tender 28-Joint Count (shoulders, elbows, wrists, MCPs, PIPs including thumb IP, knees); • PGA: Patient Global Disease Activity (patient's self-assessment of overall RA disease activity on a scale 0-100 where 100 is maximal activity); • IGA: Physician's Global Disease Activity (evaluator's assessment of the subject's overall RA disease activity on a scale 0-100 where 100 is maximal activity)
The CDAI will be scored at screening, baseline, after 2 weeks and 4 weeks treatment, and at the final visit (one week after final dose).

peritonitis = conditions: oral; cited from earlier work
MC1R = conditions: cited from earlier work
macrophages = conditions: cited from earlier work
melanocytes = conditions: cited from earlier work
[4] = Phase I repeated dose study, peak and trough concentrations at steady conditions; format: in vivo, human; conditions: 200 mg once daily
[5] = test system: experimental inflammatory arthritis; conditions: oral; cited from earlier work
[6] = 50 mg AP1189 once daily plus MTX
[7] = 100 mg AP1189 once daily plus MTX

NC(N)=N/N=C/C=C/c1cccn1-c1ccccc1[N+](=O)[O-] [AP1189, (E)-N-trans-{3-[1-(2-nitrophenyl)-1H-pyrrol-2-yl]-allylidene}-aminoguanidium acetate]
ERK1/2 phosphorylation (MC3R; MC3R): cause ERK1/2 phosphorylation
canonical cAMP generation (MC3R; MC3R): does not induce canonical CAMP generation
agonist character at MC3R (MC3R): biased agonist
DAP Average/Median ([1]; 50 mg AP1189, 4 Weeks, n 33): 79.9 mmHg
SAP Average/Median ([1]; 50 mg AP1189, 4 Weeks, n 33): 129.1 mmHg
MAP Average/Median ([1]; 50 mg AP1189, 4 Weeks, n 33): 96.3 mmHg
CNA (clinically notable vital sign abnormalities) ([1]; 50 mg AP1189, 4 Weeks, n 33): 2 (6%)
DAP Average/Median ([1]; 50 mg AP1189, Base Line, n 33): 80.0 mmHg
SAP Average/Median ([1]; 50 mg AP1189, Base Line, n 33): 131.3 mmHg
MAP Average/Median ([1]; 50 mg AP1189, Base Line, n 33): 97.1 mmHg
CNA (clinically notable vital sign abnormalities) ([1]; 50 mg AP1189, Base Line, n 33): 4 (11%)
decrease in DAP after 4 weeks treatment ([1]; 50 mg AP1189 group): 0.1 mmHg
decrease in MAP after 4 weeks treatment ([1]; 50 mg AP1189 group): 0.8 mmHg
decrease in SAP after 4 weeks treatment ([1]; 50 mg AP1189 group): 2.2 mmHg
DAP Average/Median ([1]; 100 mg AP1189, 4 Weeks, n 34): 80.3 mmHg
SAP Average/Median ([1]; 100 mg AP1189, 4 Weeks, n 34): 126.8 mmHg
MAP Average/Median ([1]; 100 mg AP1189, 4 Weeks, n 34): 95.8 mmHg
CNA (clinically notable vital sign abnormalities) ([1]; 100 mg AP1189, 4 Weeks, n 34): 1 (3%)
DAP Average/Median ([1]; 100 mg AP1189, Base Line, n 34): 81.1 mmHg
SAP Average/Median ([1]; 100 mg AP1189, Base Line, n 34): 129.9 mmHg
MAP Average/Median ([1]; 100 mg AP1189, Base Line, n 34): 97.4 mmHg
CNA (clinically notable vital sign abnormalities) ([1]; 100 mg AP1189, Base Line, n 34): 4 (11%)
decrease in DAP after 4 weeks treatment ([1]; 100 mg AP1189 group): 0.8 mmHg
decrease in MAP after 4 weeks treatment ([1]; 100 mg AP1189 group): 1.6 mmHg
decrease in SAP after 4 weeks treatment ([1]; 100 mg AP1189 group): 3.1 mmHg
number of observed abnormalities in blood pressure ([1]; both treatment groups (50 mg and 100 mg), 4 weeks, no change in placebo group): reduced
reduction of neutrophil accumulation compared to pretreatment with vehicle [2]: 70%
reduction of IL-1β levels compared to pretreatment with vehicle ([2]; p<0.05 vs vehicle): 37%
reduction of IL-6 levels compared to pretreatment with vehicle ([2]; p<0.05 vs vehicle): 59%
CDAI group mean, Baseline [3, 6]: 36.1
CDAI group mean, Screening [3, 6]: 35.6
CDAI group mean, Week 4 [3, 6]: 24.2
CDAI group mean, Week 2 [3, 6]: 29.9
CDAI group mean, Week 5 [3, 6]: 22.9
CDAI Difference [3, 6]: −11.9
CDAI Difference in % [3, 6]: 33%
CDAI group mean, Baseline [3, 7]: 39
CDAI group mean, Screening [3, 7]: 38.9
CDAI group mean, Week 4 [3, 7]: 23.9
CDAI group mean, Week 2 [3, 7]: 28.9
CDAI group mean, Week 5 [3, 7]: 21.3
CDAI Difference [3, 7]: −15.1
CDAI Difference in % [3, 7]: 39%
effect in reducing CDAI ([3]; both tested dosages, 50 mg and 100 mg): significant effect
anti-inflammatory action in peritonitis (peritonitis): elicits anti-inflammatory actions
ERK1/2 phosphorylation (MC1R; MC1R): cause ERK1/2 phosphorylation
canonical cAMP generation (MC1R; MC1R): does not induce canonical CAMP generation
agonist character at MC1R (MC1R): biased agonist
cytokine release (macrophages): reduce cytokine release
melanogenesis (melanocytes): no melanogenesis was induced
C Trough (Mean +/− SD, N = 9) [4]: 186 ± 45 ng/mL
macroscopic and histological parameters of joint disruption [5]: significant reduction
